Consider 23 compounds from patent US8268823B2, “Medical use of triazine derivatives” (University of Greenwich, priority 2006, dated 2012).

Molecules are shown by their SMILES. Read-outs that look alike come from different tables or passages of the source.

For test [1], the system named is sodium channel. As to the kind of experiment: veratrine-evoked uptake of [14C]guanidine into rat forebrain synaptosomes ([14C]guanidine flux). The test is classed as biochemical. The settings on record: for Hill (uptake of [14C]guanidine): slope. Here is the method: The screening strategy is designed to select compounds with appropriate sodium channel blocking activity and low side effect liability. To this end all compounds are processed through the primary sodium channel assay (veratrine-evoked uptake of [^14C]guanidine into rat forebrain synaptosomes) and IC50 values computed from generated concentration-effect curves.
Synaptosomes (heavy and light mitochondrial fraction containing synaptosomes) were prepared by transferring the forebrain (of known wet weight) to a glass Potter vessel to which 9 volumes ice-cold 0.25M sucrose had been added and homogenising, using a teflon pestle, by 8 ‘up and down strokes’ of a Braun Potter S motor driven homogeniser set to 900 rpm. The resulting homogenate was centrifuged at 1036×g at 4° for 10 min and the supernatant collected. The remaining pellet was resuspended, as above, in fresh ice-cold 0.25M sucrose and the centrifugation step repeated. The supernatant fractions were pooled and centrifuged at 40,000×g (average) at 4° for 15 min and the resulting pellet resuspended in the appropriate assay buffer at a concentration of 20-25 mg wet weight per ml appropriate assay buffer.
Both assays were carried out using 14 ml polypropylene test tubes to which a range of concentrations of the compounds under test were added.
Compounds under test were pre-incubated for 10 min at 30° in incubation buffer (50 mM pH 7.4 HEPES (adjusted to pH 7.4 with Tris base), 130 mM choline chloride, 5.5 mM D-glucose, 0.8 mm MgSO4 and 5 mM KCl) containing 7.5 mg original wet weight of tissue and 100 μg veratrine HCl in a final volume of 0.5 ml. […] A further 2×5 ml of ice-cold wash buffer was added to each tube and the vacuum filtration step repeated. The GF/C glass fibre filters were transferred to minivials and 4 ml Picofluor^40 liquid scintillant added using a Brandel™ deposit/dispense system. Radioactivity was measured using a Beckman Liquid Scintillation Counter.
(§1) Data are presented as mean±sem of number of experiments indicated in brackets.

Test [2] deals with T1, DiHydroFolate Reductase (DHFR) (Rattus norvegicus, UniProt Q920D2).
T1 construct: from tissue; host or cells: rat liver homogenate supernatant (47,500 x g)
T1 sequence (Q920D2 1-187): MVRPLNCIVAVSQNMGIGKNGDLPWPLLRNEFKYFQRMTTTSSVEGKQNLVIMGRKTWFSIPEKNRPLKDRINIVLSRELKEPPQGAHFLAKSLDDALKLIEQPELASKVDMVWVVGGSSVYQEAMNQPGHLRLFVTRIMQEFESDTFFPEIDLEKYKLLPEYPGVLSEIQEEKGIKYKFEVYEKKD
As to the kind of experiment: inhibition of binding of [3H]methotrexate to rat liver homogenate supernatant. As to conditions: for inhibition at 20 µM: assay concentration 20 μM; for inhibition at 99 µM: assay concentration 99 μM; for IC50: rat liver supernatant; for inhibition at 495 µM: assay concentration 495 μM. The procedure: All steps were carried out at 4° (or on ice). Freshly dissected rat liver was dissected into 0.25M ice-cold Sucrose and subsequently homogenised (U-turrax) in 50 mM pH 6.0 phosphate buffer (10 ml/g tissue) containing 15 mM Dithiothreitol. The resulting homogenate was centrifuged @ 47,500×g for 20 min and supernatant (filtered through cotton wool to remove fatty lumps) stored @-80° before use (Rothenberg et al).
The binding reaction was stopped by the addition of 50 μl of a charcoal suspension (consisting of charcoal, Bovine Serum Albumin and Dextran present in a weight ratio of 100:4:1 suspended in 50 mM pH 6.0 phosphate buffer. Samples were vortexed, allowed to stand for 2 minutes and charcoal was precipitated by microcentrifugation @ full speed for 5 min. Aliquots of clear supernatant were transferred to counting vials containing liquid scintillant for measurement of radioactivity using Liquid Scintillation Spectroscopy.
Percentage inhibition values were calculated by comparison to this value.
as §1

Where [3] appears, read: Table 3, rat forebrain synaptosomes, read-out: [14C]guanidine flux Mean (IC50: μM).
Setting [4] is: read-out: [3H]methotrexate binding Inhibition (% @ assay conc'n).
The mark [5] stands for this setting: Table 8, read-out: IC50 (μM) (uptake of [14C]guanidine).

As for `Nc1nnc(-c2ccccc2)c(N)n1` [Example 43, 3,5-Diamino-6-phenyl-1,2,4-triazine], the half-inhibitory concentration (IC50) in test [1] (setting [3]) was greater than 500 µM. Moreover, the inhibition at 50 µM in test [2] (read-out: [3H]methotrexate binding Inhibition (% @ assay conc'n), assay concentration 50 μM) came to 82%.

For `N=c1nc(N)c(-c2cccc(Cl)c2Cl)nn1Cc1ccc(C(N)=O)cc1` [Example 27, 4-{[5(3)-Amino-6-(2,3-dichlorophenyl)-2,3-dihydro-3(5)-imino-1,2,4-triazin-2-yl]methyl}benzamide or 5(3)-Amino-6-(2,3-dichlorophenyl)-2,3(2,5)-dihydro-3(5)-imino-2-(3-carboxamido)phenylmethyl-1,2,4-triazine], in test [1] (setting [3]), the half-inhibitory concentration (IC50) is 234 µM.

Regarding `N=c1nc(N)c(-c2cccc(Cl)c2Cl)nn1CC(N)=O` [Example 11], the IC50 in test [1] (setting [3]) is greater than 100 µM. Moreover, in test [2] (setting [4]), the inhibition at 20 µM is -3% and the inhibition at 99 µM was -3%.

In the case of `N=c1nc(N)c(-c2cccc(Cl)c2Cl)nn1Cc1ccc(Cl)cc1` [Example 21, 5(3)-Amino-6-(2,3-dichlorophenyl)-2,3(2,5)-dihydro-3(5)-imino-2-(4-chloro)phenylmethyl-1,2,4-triazine], the half-inhibitory concentration (IC50) in test [1] (setting [3]) came out at 6.5 µM. Besides, the “[3H]methotrexate binding Inhibition (% @ assay conc'n)” value in test [2] (assay concentration 10 μM) and in test [2] (assay concentration 95 μM) was −4% throughout.

As to `N=c1nc(N)c(-c2cc(Cl)cc(Cl)c2Cl)nn1CCF` [Example 55, 5(3)-Amino-6-(2,3,5-trichlorophenyl)-2,3(2,5)-dihydro-3(5)-imino-2-(2-fluoroethyl)-1,2,4-triazine methanesulfonate], in test [1] (Table 8), the “pIC50 (uptake of [14C]guanidine)” value came to 5.20 ± 0.05 and the “Hill (uptake of [14C]guanidine)” value worked out at 0.79. Moreover, the IC50 in test [1] (setting [5]) turned out to be 6.31 µM.

On to `CCn1nc(-c2cc(Cl)ccc2Cl)c(N)nc1=N` [Example 49, 5(3)-Amino-6-(2,5-dichlorophenyl)-2,3(2,5)-dihydro-3(5)-imino-2-ethyl-1,2,4-triazine methanesulfonate], for which the values for the concentration for half-maximal inhibition (IC50) in test [1] (setting [3]) and in test [2] were 20.9 µM and 95 µM, respectively.

`Nc1nnc(-c2cccc(F)c2F)c(N)n1` [Example 33, 6-(2,3-difluorophenyl)-1,2,4-triazine-3,5-diamine]: the half-inhibitory concentration (IC50) was greater than 300 µM in test [1] (setting [3]) and 442 ± 5.1 µM in test [2].

`CCn1nc(-c2cc(Cl)cc(Cl)c2)c(N)nc1=N` [Example 54, 5(3)-Amino-6-(3,5-dichlorophenyl)-2,3(2,5)-dihydro-3(5)-imino-2-ethyl-1,2,4-triazine methanesulfonate]: in test [1] (Table 8), the “pIC50 (uptake of [14C]guanidine)” value came out at 4.73 ± 0.11 and the “Hill (uptake of [14C]guanidine)” value is given as 0.76. Also, the 50% inhibitory concentration (IC50) in test [1] (setting [5]) came out at 18.6 µM.

In the case of `CC(C)(C)OC(=O)N1CCC(Cn2nc(-c3cccc(Cl)c3Cl)c(N)nc2=N)CC1` [Example 37, 1,1-Dimethylethyl 4-[5(3)-Amino-6-(2,3-dichlorophenyl)-2,3(2,5)-dihydro-3(5)-imino-1,2,4-triazin-2-ylmethyl]piperidine-1-carboxylate or 5(3)-Amino-6-(2,3-dichlorophenyl)-2,3(2,5)-dihydro-3(5)-imino-2-(Bocpiperidin-4-yl)methyl-1,2,4-triazine], the half-maximal inhibitory concentration (IC50) in test [1] (setting [3]) was 12.9 µM; in test [2], greater than 300 µM.

For the compound `Cn1nc(-c2cc(Cl)ccc2Cl)c(N)nc1=N` [Example 48, 5(3)-Amino-6-(2,5-dichlorophenyl)-2,3(2,5)-dihydro-3(5)-imino-2-methyl-1,2,4-triazine methanesulfonate], the IC50 came to 28.2 µM in test [1] (setting [3]) and 251 µM in test [2].

Regarding `CCn1nc(-c2ccccc2)c(N)nc1=N` [Example 47, 5(3)-Amino-6-phenyl-2,3(2,5)-dihydro-3(5)-imino-2-ethyl-1,2,4-triazine methanesulfonate], the IC50 in test [1] (setting [3]) came out at 676 µM. Also, the inhibition at 495 µM in test [2] (setting [4]) amounted to 1%.

Regarding `N=c1nc(N)c(-c2cccc(Cl)c2Cl)nn1Cc1ccc(CO)cc1` [Example 28, 4-{[5(3)-Amino-6-(2,3-dichlorophenyl)-2,3-dihydro-3(5)-imino-1,2,4-triazin-2-yl]methyl}phenylmethanol or 5(3)-Amino-6-(2,3-dichlorophenyl)-2,3(2,5)-dihydro-3(5)-imino-2-(4-hydroxymethyl)phenylmethyl-1,2,4-triazine], the IC50 in test [1] (setting [3]) was 49 µM.

Take `N=c1nc(N)c(-c2cccc(Cl)c2Cl)nn1Cc1ccccc1Cl` [Example 22, 5(3)-Amino-6-(2,3-dichlorophenyl)-2,3(2,5)-dihydro-3(5)-imino-2-(2-chloro)phenylmethyl-1,2,4-triazine]: the IC50 in test [1] (setting [3]) worked out at 4.6 µM.

As to `Nc1nnc(-c2cccc(Cl)c2F)c(N)n1` [Example 35], the IC50 was 490 µM in test [1] (setting [3]) and 81.3 µM in test [2].

For `Cn1nc(-c2cc(Cl)cc(Cl)c2)c(N)nc1=N` [Example 53, 5(3)-Amino-6-(3,5-dichlorophenyl)-2,3(2,5)-dihydro-3(5)-imino-2-methyl-1,2,4-triazine methanesulfonate], in test [1] (Table 8), the “pIC50 (uptake of [14C]guanidine)” value was 4.34 ± 0.16 and the “Hill (uptake of [14C]guanidine)” value worked out at 0.73. Besides, the IC50 in test [1] (setting [5]) was determined as 45.7 µM.

Take `Cn1nc(-c2ccc(Cl)cc2Cl)c(N)nc1=N` [Example 45, 5(3)-Amino-6-(2,4-dichlorophenyl)-2,3(2,5)-dihydro-3(5)-imino-2-methyl-1,2,4-triazine methanesulfonate]: the concentration for half-maximal inhibition (IC50) in test [1] (setting [3]) turned out to be 87.1 µM. Also, in test [2] (setting [4]), the inhibition at 495 µM is -1%.

Regarding `Cc1ccc(Cn2nc(-c3cccc(Cl)c3Cl)c(N)nc2=N)cc1` [Example 12, 5(3)-Amino-6-(2,3-dichlorophenyl)-2,3(2,5)-dihydro-3(5)-imino-2-(4-methyl)phenylmethyl-1,2,4-triazine], the 50% inhibitory concentration (IC50) in test [1] (setting [3]) was 4.1 µM. Besides, in test [2] (setting [4]), the inhibition at 20 µM was -2% and the inhibition at 99 µM was -3%.

As to `N=c1nc(N)c(-c2cccc(Cl)c2Cl)nn1Cc1cccc(C(F)(F)F)c1F` [Example 26, 5(3)-Amino-6-(2,3-dichlorophenyl)-2,3(2,5)-dihydro-3(5)-imino-2-(2-fluoro-3-trifluoromethyl)phenylmethyl-1,2,4-triazine], the IC50 in test [1] (setting [3]) turned out to be 5.3 µM.

For `Nc1nnc(-c2ccc(Cl)cc2Cl)c(N)n1` [Example 44, 3,5-Diamino-6-(2,4-dichlorophenyl)-1,2,4-triazine], the results for the IC50 in test [1] (setting [3]) and in test [2] were 603 µM and 105 µM, respectively.

As to `N=c1nc(N)c(-c2cc(Cl)cc(Cl)c2Cl)nn1CCC(F)(F)F` [Example 56, 5(3)-Amino-6-(2,3,5-trichlorophenyl)-2,3(2,5)-dihydro-3(5)-imino-2-(3,3,3-trifluoropropyl)-1,2,4-triazine methanesulfonate], in test [1] (Table 8), the “pIC50 (uptake of [14C]guanidine)” value was found to be 2.90 ± 0.20 and the “Hill (uptake of [14C]guanidine)” value came to 0.83. For the same compound, the IC50 in test [1] (setting [5]) stood at 1260 µM.

Turning to `N=c1nc(N)c(-c2cccc(Cl)c2Cl)nn1Cc1ccc(C(F)(F)F)cc1` [Example 25, 5(3)-Amino-6-(2,3-dichlorophenyl)-2,3(2,5)-dihydro-3(5)-imino-2-(4-trifluoromethyl)phenylmethyl-1,2,4-triazine], the IC50 in test [1] (setting [3]) was found to be 6.2 µM.

For `Cn1nc(-c2ccccc2)c(N)nc1=N` [Example 46, 5(3)-Amino-6-phenyl-2,3(2,5)-dihydro-3(5)-imino-2-methyl-1,2,4-triazine methanesulfonate], the IC50 was determined as 2290 µM in test [1] (setting [3]) and 288 µM in test [2].

Turning to `N=c1nc(N)c(-c2cccc(Cl)c2Cl)nn1CCF` [Example 52, 5(3)-Amino-6-(2,3-dichlorophenyl)-2,3(2,5)-dihydro-3(5)-imino-2-(2-fluoroethyl)-1,2,4-triazine methanesulfonate], in test [1] (Table 8), the “pIC50 (uptake of [14C]guanidine)” value was 5.00 ± 0.08 and the “Hill (uptake of [14C]guanidine)” value was 0.74. Moreover, the IC50 in test [1] (setting [5]) was determined as 10 µM.
